The results in this text go back to ChEMBL document CHEMBL1139006, “Synthesis and in vitro antibiotic activity of 16-membered 9-O-arylalkyloxime macrolides” (2006).

Holding throughout (type): functional
Assay [1] has as its system Streptococcus pneumoniae. Nature of the assay: Antibacterial activity against macrolide resistant Streptococcus pneumoniae ATCC 700905.
Assay [2] deals with Staphylococcus aureus. Nature of the assay: Antibacterial activity against macrolide resistant Staphylococcus aureus ATCC 33591.
Assay [3] deals with Streptococcus pneumoniae. Nature of the assay: Antibacterial activity against macrolide resistant Streptococcus pneumoniae ATCC 700906.
In assay [4] the test system is Staphylococcus aureus. Nature of the assay: Antibacterial activity against macrolide resistant Staphylococcus aureus ATCC BAA-44.
A further assay concerns Enterococcus faecalis. As to the kind of experiment: Antibacterial activity against Enterococcus faecalis ATCC 51575.
Assay [5] has as its system Staphylococcus epidermidis. As to the kind of experiment: Antibacterial activity against Staphylococcus epidermidis ATCC 12228.
In assay [6] the test system is Streptococcus pneumoniae. Nature of the assay: Antibacterial activity against Streptococcus pneumoniae ATCC 700671.
Assay [7] relates to Streptococcus pneumoniae. Nature of the assay: Antibacterial activity against Streptococcus pneumoniae ATCC 6301.
Assay [8] deals with Streptococcus pneumoniae. Nature of the assay: Antibacterial activity against macrolide resistant Streptococcus pneumoniae ATCC 700677.
Assay [9] relates to Staphylococcus aureus. Nature of the assay: Antibacterial activity against macrolide resistant Staphylococcus aureus ATCC BAA-39.
Assay [10] has as its system Streptococcus pneumoniae. Nature of the assay: Antibacterial activity against Streptococcus pneumoniae ATCC 49619.
Assay [11] relates to Streptococcus pneumoniae. As to the kind of experiment: Antibacterial activity against macrolide resistant Streptococcus pneumoniae ATCC 700676.
Assay [12] concerns Staphylococcus aureus. As to the kind of experiment: Antibacterial activity against Staphylococcus aureus ATCC 29213.
Assay [13] deals with Staphylococcus aureus. Nature of the assay: Antibacterial activity against Staphylococcus aureus ATCC 6538p.
For assay [14], the system named is Staphylococcus aureus. As to the kind of experiment: Antibacterial activity against macrolide resistant Staphylococcus aureus ATCC 141541.

Converted amounts (≈) assume the structure as drawn.

For the molecule `CC[C@H]1OC(=O)C[C@@H](O)[C@H](C)[C@@H](O[C@@H]2O[C@H](C)[C@@H](O)[C@H](N(C)C)[C@@H]2O)[C@@H](CCN2CC(C)CC(C)C2)C[C@@H](C)C(=N/OCCCCc2ccc3ncccc3c2)/C=C/C(C)=C/C1CO` (stereo not given in full), the MIC in the assay on Streptococcus pneumoniae [1] was 6.25 mg/L (≈ 7 µM); against Staphylococcus aureus [2], above 12.5 mg/L; with Streptococcus pneumoniae [3], above 12.5 mg/L; with Staphylococcus aureus [4], above 12.5 mg/L; with Enterococcus faecalis, above 12.5 mg/L; in assay [5] it was above 12.5 mg/L. Moreover, the minimum inhibitory concentration (MIC) with Streptococcus pneumoniae [6] is 3.12 mg/L (≈ 3.49 µM); against Streptococcus pneumoniae [7], 1.56 mg/L (≈ 1.75 µM); with Streptococcus pneumoniae [8], above 12.5 mg/L; against Staphylococcus aureus [9], above 12.5 mg/L; against Streptococcus pneumoniae [10], 6.25 mg/L (≈ 7 µM); in the assay with Streptococcus pneumoniae [11], 6.25 mg/L (≈ 7 µM). Besides, the MIC with Staphylococcus aureus [12] is 12.5 mg/L (≈ 14 µM); with Staphylococcus aureus [13], 6.25 mg/L (≈ 7 µM); with Staphylococcus aureus [14], above 12.5 mg/L.

Turning to `CC[C@H]1OC(=O)C[C@@H](O)[C@H](C)[C@@H](O[C@@H]2O[C@H](C)[C@@H](O)[C@H](N(C)C)[C@H]2O)[C@@H](CC=O)C[C@@H](C)C(=N\OCc2ccccc2)/C=C/C(C)=C/C1CO` (stereo not given in full), the minimal inhibitory concentration (MIC) was 0.39 mg/L (≈ 0.555 µM) in the assay on Streptococcus pneumoniae [1]; above 12.5 mg/L in the assay with Staphylococcus aureus [2]; above 12.5 mg/L against Streptococcus pneumoniae [3]; above 12.5 mg/L in the assay on Staphylococcus aureus [4]; above 12.5 mg/L in the assay on Enterococcus faecalis; 1.56 mg/L (≈ 2.22 µM) in assay [5]. The MIC against Streptococcus pneumoniae [6] is 0.39 mg/L (≈ 0.555 µM); in the assay with Streptococcus pneumoniae [7] it was 0.2 mg/L (≈ 0.285 µM); against Streptococcus pneumoniae [8] it was 3.12 mg/L (≈ 4.44 µM); in the assay on Staphylococcus aureus [9] it was above 12.5 mg/L; in the assay with Streptococcus pneumoniae [10], 0.2 mg/L (≈ 0.285 µM); against Streptococcus pneumoniae [11], 0.2 mg/L (≈ 0.285 µM). Further, the minimum inhibitory concentration (MIC) with Staphylococcus aureus [12] is 1.56 mg/L (≈ 2.22 µM); with Staphylococcus aureus [13], 0.78 mg/L (≈ 1.11 µM); against Staphylococcus aureus [14], 1.56 mg/L (≈ 2.22 µM).

On to `CC[C@H]1OC(=O)C[C@@H](O)[C@H](C)[C@@H](O[C@@H]2O[C@H](C)[C@@H](O)[C@H](N(C)C)[C@@H]2O)[C@@H](CCN2CC(C)CC(C)C2)C[C@@H](C)C(=N\OCC(=O)N2CCN(c3ccccc3)CC2)/C=C/C(C)=C/C1CO` (stereo not given in full), for which the MIC in the assay on Streptococcus pneumoniae [1] was 0.78 mg/L (≈ 0.855 µM); in the assay on Staphylococcus aureus [2], above 12.5 mg/L; in the assay on Streptococcus pneumoniae [3], above 12.5 mg/L; against Staphylococcus aureus [4] it was above 12.5 mg/L; against Enterococcus faecalis, above 12.5 mg/L; in assay [5] it was 0.78 mg/L (≈ 0.855 µM). Also, the MIC in the assay on Streptococcus pneumoniae [6] was 0.098 mg/L (≈ 0.107 µM); in the assay on Streptococcus pneumoniae [7], 0.049 mg/L (≈ 0.0537 µM); against Streptococcus pneumoniae [8], above 12.5 mg/L; in the assay with Staphylococcus aureus [9] it was above 12.5 mg/L; in the assay with Streptococcus pneumoniae [10] it was 0.049 mg/L (≈ 0.0537 µM); in the assay with Streptococcus pneumoniae [11], 4.56 mg/L (≈ 5 µM). The minimum inhibitory concentration (MIC) is 1.56 mg/L (≈ 1.71 µM) in the assay on Staphylococcus aureus [12], 0.39 mg/L (≈ 0.428 µM) against Staphylococcus aureus [13] and 3.12 mg/L (≈ 3.42 µM) in the assay on Staphylococcus aureus [14].

For `CC[C@H]1OC(=O)C[C@@H](O)[C@H](C)[C@@H](O[C@@H]2O[C@H](C)[C@@H](O)[C@H](N(C)C)[C@@H]2O)[C@@H](CCN2CC(C)CC(C)C2)C[C@@H](C)C(=N\OCc2ccc(F)cc2)/C=C/C(C)=C/C1CO` (stereo not given in full), the MIC is 0.39 mg/L (≈ 0.477 µM) with Streptococcus pneumoniae [1]; above 12.5 mg/L against Staphylococcus aureus [2]; above 12.5 mg/L in the assay on Streptococcus pneumoniae [3]; above 12.5 mg/L against Staphylococcus aureus [4]; above 12.5 mg/L in the assay on Enterococcus faecalis; 3.12 mg/L (≈ 3.81 µM) in assay [5]. In addition, the MIC is 0.39 mg/L (≈ 0.477 µM) against Streptococcus pneumoniae [6]; 0.39 mg/L (≈ 0.477 µM) with Streptococcus pneumoniae [7]; above 12.5 mg/L in the assay on Streptococcus pneumoniae [8]; above 12.5 mg/L against Staphylococcus aureus [9]; 0.39 mg/L (≈ 0.477 µM) in the assay with Streptococcus pneumoniae [10]; 0.39 mg/L (≈ 0.477 µM) in the assay with Streptococcus pneumoniae [11]. Moreover, the minimal inhibitory concentration (MIC) was 3.12 mg/L (≈ 3.81 µM) with Staphylococcus aureus [12], 0.78 mg/L (≈ 0.953 µM) in the assay with Staphylococcus aureus [13] and 3.12 mg/L (≈ 3.81 µM) against Staphylococcus aureus [14].

On to `CC[C@H]1OC(=O)C[C@@H](O)[C@H](C)[C@@H](O[C@@H]2O[C@H](C)[C@@H](O)[C@H](N(C)C)[C@H]2O)[C@@H](CC=O)C[C@@H](C)C(=N/OC/C=C\c2cnc3ccccc3c2)/C=C/C(C)=C/C1CO` (stereo not given in full), for which the minimal inhibitory concentration (MIC) is 0.049 mg/L (≈ 0.0628 µM) in the assay on Streptococcus pneumoniae [1]; above 12.5 mg/L in the assay on Staphylococcus aureus [2]; above 12.5 mg/L in the assay on Streptococcus pneumoniae [3]; above 12.5 mg/L against Staphylococcus aureus [4]; above 12.5 mg/L in the assay with Enterococcus faecalis; 0.39 mg/L (≈ 0.5 µM) in assay [5]. Further, the MIC was 0.025 mg/L (≈ 0.0321 µM) in the assay with Streptococcus pneumoniae [6]; 0.025 mg/L (≈ 0.0321 µM) in the assay on Streptococcus pneumoniae [7]; above 12.5 mg/L against Streptococcus pneumoniae [8]; above 12.5 mg/L with Staphylococcus aureus [9]; 0.025 mg/L (≈ 0.0321 µM) against Streptococcus pneumoniae [10]; 0.049 mg/L (≈ 0.0628 µM) with Streptococcus pneumoniae [11]. Also, the minimum inhibitory concentration (MIC) is 0.78 mg/L (≈ 1 µM) in the assay with Staphylococcus aureus [12], 0.2 mg/L (≈ 0.256 µM) in the assay on Staphylococcus aureus [13] and 0.78 mg/L (≈ 1 µM) in the assay on Staphylococcus aureus [14].

Consider `CC[C@H]1OC(=O)C[C@@H](O)[C@H](C)[C@@H](O[C@@H]2O[C@H](C)[C@@H](O[C@H]3C[C@@](C)(O)[C@@H](O)[C@H](C)O3)[C@H](N(C)C)[C@H]2O)[C@@H](CC=O)C[C@@H](C)C(=O)/C=C/C(C)=C/[C@@H]1CO[C@@H]1O[C@H](C)[C@@H](O)[C@@H](OC)[C@H]1OC` [TYLOSIN], for which the MIC is 0.2 mg/L (≈ 0.218 µM) against Streptococcus pneumoniae [1]; above 12.5 mg/L in the assay with Staphylococcus aureus [2]; above 12.5 mg/L with Streptococcus pneumoniae [3]; above 12.5 mg/L against Staphylococcus aureus [4]; above 12.5 mg/L in the assay with Enterococcus faecalis; 0.39 mg/L (≈ 0.426 µM) in [5]. In addition, the MIC was 0.2 mg/L (≈ 0.218 µM) with Streptococcus pneumoniae [6]; 0.098 mg/L (≈ 0.107 µM) in the assay with Streptococcus pneumoniae [7]; above 12.5 mg/L in the assay with Streptococcus pneumoniae [8]; above 12.5 mg/L with Staphylococcus aureus [9]; 0.098 mg/L (≈ 0.107 µM) with Streptococcus pneumoniae [10]; 0.2 mg/L (≈ 0.218 µM) with Streptococcus pneumoniae [11]. Moreover, the values for the MIC with Staphylococcus aureus [12], with Staphylococcus aureus [13] and against Staphylococcus aureus [14] were 1.56 mg/L (≈ 1.7 µM), 0.2 mg/L (≈ 0.218 µM) and 1.56 mg/L (≈ 1.7 µM), respectively.
